Where two headings read alike, the source gives them in different places.
What was measured:
42F = test: Proliferation EC50, 42F; assay type: cell-based; conditions: Table 2
ATP levels = test: Time course of ATP levels, Compound 1 with oligomycin (FIG. 4); assay type: cell-based; conditions: co-administration with oligomycin
LNCaP95 = test: MTT proliferation assay, LNCaP95; assay type: cell-based; conditions: Homo sapiens, LNCaP-95
Experimental: (§1) Anti-tumor activity was determined by screening a series of compounds against the castrate-resistant, androgen-receptor-positive, prostate cancer cell line LNCaP95. […] Inhibition of proliferation was determined based on the level of LNCaP95 cell growth suppression using an MTT assay (NAD(P)H-dependent cellular oxidoreductase enzymatic activities)) read at 72 and 96 hours after addition of the compounds. […] Each cell line was be tested in quadruplicate.

LNCaP cells = test: Cell death in LNCaP cells, alone or in combination, 24 h (FIG. 6); assay type: cell-based
Experimental: FIG. 6 evaluation of Compound 1 and metformin in LNCaP cells. LNCaP cells were treated with Compound 1, oligomycin (Oli), 2-deoxy-d-glucose (2-DG), or metformin (Met), alone or in combination for 24 h.
FIGS. 2-4 provide additional results on the activity of the compounds of the disclosure. […] Co-administration of Compound 1 and metformin is illustrated in FIG. 6. LNCaP cells were treated with Compound 1, oligomycin (Oli), 2-deoxy-d-glucose (2-DG), or metformin (Met), alone or in combination for 24 h. […] None of compounds were sufficient to kill cells under the same conditions on their own.

PK Oral (MMV) = assay type: in vivo; conditions: dose 25 mg/kg
U2OS = test: Proliferation EC50, U2OS; assay type: cell-based; conditions: Homo sapiens, Table 2
Experimental: as §1
(§2) C4-2 and C4-2B3 are derived from LNCaP but have different characteristics. […] LNCaP, C4-2 and C4-2B require androgen receptor but only LNCaP line is androgen sensitive.
(§3) RWPE-1 is immortalized benign prostate hypertrophic cell line. […] LAPC4 is AR+ castrate resistant line not LNCaP-based prostate cancer. […] HFF1 is human foreskin fibroblast cell line. NCI-H660 is neuroendocrine (NE) prostate cancer human AR− cell line. MSKCC-EF1 is NE human prostate AR- or nearly negative prostate cancer cell line. MCF7 is human breast cancer cell line. U2OS is human osteosarcoma cell line. HepG2 is hepatoma liver tumor cell line. CRL8155 is lymphoblastoid cell line.

42D = test: Proliferation EC50, 42D; assay type: cell-based; conditions: Table 2
MCF7 = test: Proliferation EC50, MCF7; assay type: cell-based; conditions: Homo sapiens, Table 2
Experimental: as §1, §2, §3

[1] = Plasma protein binding, human; assay type: in vitro ADME
HFF-1 = test: Proliferation EC50, HFF-1; assay type: cell-based; conditions: Homo sapiens, Table 2
Experimental: as §1, §2, §3

MSKCC-EF1 = test: Proliferation EC50, MSKCC-EF1; assay type: cell-based; conditions: Homo sapiens; Table 2
Experimental: as §1, §2, §3

HEPG2 = test: Cell toxicity, HEPG2 hepatoma cell line; conditions: read-out: EC50 HepG2; Table 2
APIPC = test: Proliferation EC50, APIPC; assay type: cell-based; conditions: Table 2
[2] = Cell death when mitochondria respiration is blocked (FIGS. 5A-5C); assay type: cell-based
C4-2 = test: Proliferation EC50, C4-2; assay type: cell-based; conditions: Table 2
Experimental: as §1, §2

16D = test: Proliferation EC50, 16D; assay type: cell-based; conditions: Table 2
DU145 = test: Proliferation EC50, DU145; assay type: cell-based; conditions: Homo sapiens, DU-145; Table 2
CRL-8155 = test: Cell toxicity, CRL-8155 lymphoblastoid cell line; conditions: read-out: EC50 CRL8155; Table 2
C4-2B = test: Proliferation EC50, C4-2B; assay type: cell-based; conditions: Table 2
Experimental: as §1, §2

[3] = test system: intracellular ATP in LNCaP95; test: Intracellular ATP in LNCaP95 (CellTiter-Glo); assay type: cell-based; conditions: FIG. 1, without oligomycin
Experimental: The relative intracellular levels of ATP were evaluated by CellTiter-Glo® Luminescent Cell Viability Assay. 2-DG is 2-deoxy-d-glucose.
OXPHOS is oxidative phosphorylation; oligo is oligomycin; AA is antimycin A; ETX is etomoxir; FCCP is carbonyl cyanide-4-trifluoromethoxy)phenylhydrazone; and Rot is rotenone.

hERG = hERG (Homo sapiens, UniProt Q12809); test: hERG; conditions: Table 1; last column beside CC50 (μM), own unit not clearly printed
Chain of hERG (Q12809 whole entry): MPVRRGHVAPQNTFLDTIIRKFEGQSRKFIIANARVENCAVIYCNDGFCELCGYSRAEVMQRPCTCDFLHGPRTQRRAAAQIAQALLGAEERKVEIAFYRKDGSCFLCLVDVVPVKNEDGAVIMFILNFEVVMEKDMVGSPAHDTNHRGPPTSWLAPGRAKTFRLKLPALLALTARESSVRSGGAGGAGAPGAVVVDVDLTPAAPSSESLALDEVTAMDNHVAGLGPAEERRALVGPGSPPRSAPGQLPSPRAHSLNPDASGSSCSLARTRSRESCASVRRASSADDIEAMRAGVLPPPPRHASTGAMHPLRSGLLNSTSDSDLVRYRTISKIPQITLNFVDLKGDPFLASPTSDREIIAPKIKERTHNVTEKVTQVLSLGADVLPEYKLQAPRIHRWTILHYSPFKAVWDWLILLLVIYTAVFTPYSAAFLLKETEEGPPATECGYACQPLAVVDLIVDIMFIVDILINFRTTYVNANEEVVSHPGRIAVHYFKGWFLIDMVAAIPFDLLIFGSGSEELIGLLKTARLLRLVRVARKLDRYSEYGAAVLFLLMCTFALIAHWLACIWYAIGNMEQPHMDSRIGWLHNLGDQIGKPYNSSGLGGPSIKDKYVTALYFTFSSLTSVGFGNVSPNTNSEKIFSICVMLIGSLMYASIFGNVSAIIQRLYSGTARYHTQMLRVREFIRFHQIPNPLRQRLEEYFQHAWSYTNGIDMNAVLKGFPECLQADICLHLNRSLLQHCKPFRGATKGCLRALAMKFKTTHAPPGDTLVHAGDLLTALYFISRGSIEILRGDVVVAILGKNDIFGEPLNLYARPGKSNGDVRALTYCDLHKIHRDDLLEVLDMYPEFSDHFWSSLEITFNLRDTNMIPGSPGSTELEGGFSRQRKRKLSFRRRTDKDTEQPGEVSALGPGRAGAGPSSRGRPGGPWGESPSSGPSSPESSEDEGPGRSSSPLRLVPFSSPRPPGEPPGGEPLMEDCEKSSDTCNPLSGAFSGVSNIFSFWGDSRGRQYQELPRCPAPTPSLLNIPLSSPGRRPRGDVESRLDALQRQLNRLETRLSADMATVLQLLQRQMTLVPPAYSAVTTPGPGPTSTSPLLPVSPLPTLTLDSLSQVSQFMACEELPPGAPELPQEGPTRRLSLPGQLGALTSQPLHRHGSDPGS

in vitro [4] = conditions: human, CRL-8155 lymphoblastoid cell line
in vitro [5] = conditions: human, HepG2 hepatoma cell line
NCI-H660 = test: Proliferation EC50, NCI-H660; assay type: cell-based; conditions: Homo sapiens, Table 2
Experimental: as §1, §2, §3

[6] = Plasma protein binding, mouse; assay type: in vitro ADME
RWPE-1 = test: Proliferation EC50, RWPE-1; assay type: cell-based; conditions: Homo sapiens, Table 2
Experimental: as §1, §2, §3

LNCaP = test: MTT proliferation assay, LNCaP; conditions: Homo sapiens
PC3 = test: MTT proliferation assay, PC3; conditions: Homo sapiens
LAPC4 = test: Proliferation EC50, LAPC4; assay type: cell-based; conditions: Homo sapiens, Table 2
Experimental: as §1, §2, §3

[7] = Plasma protein binding, rat; assay type: in vitro ADME

In the case of `CNc1ncnc2c1c(-c1ccc3cc(OC4CC4)ccc3c1)nn2CC(C)(C)O` [Example 1, 1-(3-(6-cyclopropoxynaphthalen-2-yl)-4-(methylamino)-1H-pyrazolo[3,4-d]pyrimidin-1-yl)-2-methylpropan-2-ol], the EC50 (42F) is reported as 20 µM, the “earliest time at which ATP levels are altered” value (ATP levels) is reported as 10 min and the EC50 (LNCaP95; Table 1, LNCaP95 (AR+ PCa), unit inferred) is reported as 5 µM. For the same compound, the inhibition at 10 µM (LNCaP95; read-out: MTT % inhib @ 10 μM LNCaP95) was 51.5%, the “cell death in combination with oligomycin or metformin” value (LNCaP cells) was “cause cell death” and the AUC (PK Oral (MMV)) was 28935 µmol·min/L. The Cmax (PK Oral (MMV); in vivo) was 34 µM, the Tmax (PK Oral (MMV); in vivo) was 3 h and the EC50 (U2OS) was > 20 µM. It also gave an EC50 (42D) of 10 µM, an EC50 (MCF7) of 8 µM and a fraction unbound [1] of 0.007. For the same compound, the EC50 (HFF-1) was > 20 µM, the EC50 (MSKCC-EF1) was 5 µM and the EC50 (HEPG2) was > 40 µM. The EC50 (APIPC) was 10 µM, the “cell death when mitochondria respiration is blocked” value [2] was “induces cell death” and the EC50 (C4-2) was 12 µM. The EC50 (16D) was 10 µM, the EC50 (DU145) was > 20 µM and the EC50 (CRL-8155) was > 40 µM. For the same compound, the EC50 (C4-2B) was 12 µM, the “change in ATP levels, compound alone” value [3] was “no change” and the hERG (hERG) was 13.9. For the same compound, the CC50 (in vitro [4]) was > 80 µM, the CC50 (in vitro [5]) was > 80 µM and the EC50 (NCI-H660) was 10 µM. For the same compound, the fraction unbound [6] was 0.012, the EC50 (RWPE-1) was > 20 µM and the EC50 (LNCaP; read-out: EC50 LNCaP) was 8 µM. For the same compound, the inhibition at 10 µM (LNCaP; read-out: MTT % inhib @ 10 μM LNCaP) was 35.4%, the EC50 (PC3; PC-3, read-out: EC50 PC3) was > 20 µM and the inhibition at 10 µM (PC3; PC-3, read-out: MTT % inhib @ 10 μM PC3) was 16.8%. For the same compound, the EC50 (PC3; read-out: EC50 PC3) was > 20 µM, the EC50 (LAPC4) was 7 µM and the fraction unbound [7] was 0.04.
